Measured values from ChEMBL document CHEMBL4261621, “Synthesis of enamino-2-oxindoles via conjugate addition between α-azido ketones and 3-alkenyl oxindoles: Cytotoxicity evaluation and apoptosis inducing studies” (Bioorg Med Chem Lett, 2018).
pIC50: −log10 of the molar value. Activity calls are given as the source filed them. No cut-off for these calls is given here.

How the values were obtained:
HCT-116 [1] = assay: Cytotoxicity against human HCT116 cells at 30 uM after 48 hrs by MTT assay relative to control; type: functional
A549 [2] = assay: Cytotoxicity against human A549 cells at 30 uM after 48 hrs by MTT assay relative to control; type: functional
MDA-MB-231 = assay: Cytotoxicity against human MDA-MB-231 cells at 30 uM after 48 hrs by MTT assay relative to control; type: functional
HeLa [3] = assay: Cytotoxicity against human HeLa cells at 30 uM after 48 hrs by MTT assay relative to control; type: functional
HCT-116 [4] = assay: Cytotoxicity against human HCT116 cells after 72 hrs by MTT assay; type: functional, cell-based; conditions: HCT-116, 72 h
HCT-15 = assay: Cytotoxicity against human HCT15 cells after 72 hrs by MTT assay; type: functional, cell-based; conditions: HCT-15, 72 h
A549 [5] = assay: Cytotoxicity against human A549 cells after 72 hrs by MTT assay; type: functional, cell-based; conditions: A549, 72 h
HeLa [6] = assay: Cytotoxicity against human HeLa cells after 72 hrs by MTT assay; type: functional, cell-based
NCI-H460 [7] = assay: Induction of morphological changes in human NCI-H460 cells assessed as cell shrinkage after 72 hrs by phase contrast microscopic analysis; type: functional, cell-based
NCI-H460 [8] = assay: Induction of apoptosis in human NCI-H460 cells assessed as chromatin condensation at 0.25 to 10 uM after 72 hrs by acridine orange/ethidium bromide staining based fluorescence microscopic analysis; type: functional, cell-based
NCI-H460 [9] = assay: Induction of apoptosis in human NCI-H460 cells assessed as apoptotic body formation at 0.25 to 10 uM after 72 hrs by acridine orange/ethidium bromide staining based fluorescence microscopic analysis; type: functional, cell-based
NCI-H460 [10] = assay: Induction of apoptosis in human NCI-H460 cells assessed as membrane blebbing at 0.25 to 10 uM after 72 hrs by acridine orange/ethidium bromide staining based fluorescence microscopic analysis; type: functional, cell-based
NCI-H460 [11] = assay: Induction of apoptosis in human NCI-H460 cells assessed as appearance of horse-shoe shaped nuclei at 0.25 to 10 uM after 72 hrs by DAPI staining based fluorescence microscopic analysis; type: functional, cell-based
NCI-H460 [12] = assay: Induction of apoptosis in human NCI-H460 cells assessed as appearance of condensed nuclei at 0.25 to 10 uM after 72 hrs by DAPI staining based fluorescence microscopic analysis; type: functional, cell-based
NCI-H460 [13] = assay: Induction of reactive oxygen species generation in human NCI-H460 cells after 24 hrs by DCFDA staining based fluorescence microscopic analysis; type: functional, cell-based
NCI-H460 [14] = assay: Induction of mitochondrial membrane potential loss in human NCI-H460 cells assessed as depolarized cell population at 1 uM after 72 hrs by JC1 staining based flow cytometry (reference value: 11.63%); type: functional
NCI-H460 [15] = assay: Induction of mitochondrial membrane potential loss in human NCI-H460 cells assessed as depolarized cell population at 2.5 uM after 72 hrs by JC1 staining based flow cytometry (reference value: 11.63%); type: functional
NCI-H460 [16] = assay: Induction of apoptosis in human NCI-H460 cells assessed as early apoptotic cells at 1 uM after 72 hrs by Annexin V-alexa fluor 488/propidium iodide staining based flow cytometry (reference value: 0.77%); type: functional
NCI-H460 [17] = assay: Induction of apoptosis in human NCI-H460 cells assessed as late apoptotic cells at 1 uM after 72 hrs by Annexin V-alexa fluor 488/propidium iodide staining based flow cytometry (reference value: 0.34%); type: functional
NCI-H460 [18] = assay: Induction of apoptosis in human NCI-H460 cells assessed as viable cells at 2.5 uM after 72 hrs by Annexin V-alexa fluor 488/propidium iodide staining based flow cytometry (reference value: 98.55%); type: functional; conditions: NCI-H460, 72 h, read-out: Activity
NCI-H460 [19] = assay: Induction of apoptosis in human NCI-H460 cells assessed as late apoptotic cells at 2.5 uM after 72 hrs by Annexin V-alexa fluor 488/propidium iodide staining based flow cytometry (reference value: 0.34%); type: functional
NCI-H460 [20] = assay: Induction of apoptosis in human NCI-H460 cells assessed as viable cells at 5 uM after 72 hrs by Annexin V-alexa fluor 488/propidium iodide staining based flow cytometry (reference value: 98.55%); type: functional; conditions: NCI-H460, 72 h, read-out: Activity
NCI-H460 [21] = assay: Induction of apoptosis in human NCI-H460 cells assessed as early apoptotic cells at 5 uM after 72 hrs by Annexin V-alexa fluor 488/propidium iodide staining based flow cytometry (reference value: 0.77%); type: functional
NCI-H460 [22] = assay: Induction of apoptosis in human NCI-H460 cells assessed as late apoptotic cells at 10 uM after 72 hrs by Annexin V-alexa fluor 488/propidium iodide staining based flow cytometry (reference value: 0.34%); type: functional
NCI-H460 [23] = assay: Induction of apoptosis in human NCI-H460 cells assessed as necrotic cells at 10 uM after 72 hrs by Annexin V-alexa fluor 488/propidium iodide staining based flow cytometry (reference value: 0.34%); type: functional
NCI-H460 [24] = assay: Induction of apoptosis in human NCI-H460 cells assessed as increase in early apoptotic cells after 72 hrs by Annexin V-alexa fluor 488/propidium iodide staining based flow cytometry; type: functional, cell-based
NCI-H460 [25] = assay: Inhibition of colony formation in human NCI-H460 cells supplemented with fresh medium containing compounds every 3 days measured after 7 days by crystal violet staining based assay; type: functional, cell-based
NCI-H460 [26] = assay: Cell cycle arrest in human NCI-H460 cells assessed as accumulation at sub-G1 phase at 1 uM after 24 hrs by propidium iodide staining based flow cytometry (reference value: 0.99%); type: functional
NCI-H460 [27] = assay: Cell cycle arrest in human NCI-H460 cells assessed as accumulation at G0/G1 phase at 1 uM after 24 hrs by propidium iodide staining based flow cytometry (reference value: 49.6%); type: functional
NCI-H460 [28] = assay: Cell cycle arrest in human NCI-H460 cells assessed as accumulation at S phase at 1 uM after 24 hrs by propidium iodide staining based flow cytometry (reference value: 9.93%); type: functional
NCI-H460 [29] = assay: Cell cycle arrest in human NCI-H460 cells assessed as accumulation at sub-G1 phase at 2.5 uM after 24 hrs by propidium iodide staining based flow cytometry (reference value: 0.99%); type: functional
NCI-H460 [30] = assay: Cell cycle arrest in human NCI-H460 cells assessed as accumulation at S phase at 2.5 uM after 24 hrs by propidium iodide staining based flow cytometry (reference value: 9.93%); type: functional
NCI-H460 [31] = assay: Cell cycle arrest in human NCI-H460 cells assessed as accumulation at G2/M phase at 2.5 uM after 24 hrs by propidium iodide staining based flow cytometry (reference value: 35.49%); type: functional
NCI-H460 [32] = assay: Cell cycle arrest in human NCI-H460 cells assessed as accumulation at G0/G1 phase at 5 uM after 24 hrs by propidium iodide staining based flow cytometry (reference value: 49.6%); type: functional
NCI-H460 [33] = assay: Cell cycle arrest in human NCI-H460 cells assessed as accumulation at G0/G1 phase at 10 uM after 24 hrs by propidium iodide staining based flow cytometry (reference value: 49.6%); type: functional
NCI-H460 [34] = assay: Cell cycle arrest in human NCI-H460 cells assessed as accumulation at S phase at 10 uM after 24 hrs by propidium iodide staining based flow cytometry (reference value: 9.93%); type: functional
NCI-H460 [35] = assay: Cell cycle arrest in human NCI-H460 cells assessed as accumulation at G2/M phase at 10 uM after 24 hrs by propidium iodide staining based flow cytometry (reference value: 35.49%); type: functional

CCOC(=O)/C(=C(\N)C(=O)c1ccccc1)C1C(=O)N(C)c2ccc(F)cc21 (configuration not stated) was tested, and the Activity (HCT-116 [1]) was over 50%, the Activity (A549 [2]) was over 50% and the Activity (MDA-MB-231) was over 50%. The Activity (HeLa [3]) was over 50%, the pIC50 (HCT-116 [4]) was 5.29 and the pIC50 (HCT-15) was 5.53. For the same molecule, the pIC50 (A549 [5]) was 5.45, the pIC50 (HeLa [6]) was 5.52 and the Activity (NCI-H460 [7]) was “Dose-dependent effect”. For the same molecule, the Activity (NCI-H460 [8]) was “Active”, the Activity (NCI-H460 [9]) was “Active” and the Activity (NCI-H460 [10]) was “Active”. The Activity (NCI-H460 [11]) was “Active”, the Activity (NCI-H460 [12]) was “Active” and the Activity (NCI-H460 [13]) was “Dose-dependent effect”. It also gave an Activity (NCI-H460 [14]) of 42.95%, an Activity (NCI-H460 [15]) of 71.6% and an Activity (NCI-H460 [16]) of 8.72%. For the same molecule, the Activity (NCI-H460 [17]) was 3.15%, the viability at 2.5 µM (NCI-H460 [18]) was 75.9% and the Activity (NCI-H460 [19]) was 4.4%. The viability at 5 µM (NCI-H460 [20]) was 61.1%, the Activity (NCI-H460 [21]) was 35.42% and the Activity (NCI-H460 [22]) was 1.78%. For the same molecule, the Activity (NCI-H460 [23]) was 0.03%, the Activity (NCI-H460 [24]) was “Dose-dependent effect” and the inhibition (NCI-H460 [25]) was “Dose-dependent effect”. It also gave an Activity (NCI-H460 [26]) of 9.93%, an Activity (NCI-H460 [27]) of 9.77% and an Activity (NCI-H460 [28]) of 6.55%. For the same molecule, the Activity (NCI-H460 [29]) was 9.91%, the Activity (NCI-H460 [30]) was 64.98% and the Activity (NCI-H460 [31]) was 64.03%. For the same molecule, the Activity (NCI-H460 [32]) was 11.17%, the Activity (NCI-H460 [33]) was 9.18% and the Activity (NCI-H460 [34]) was 3.42%. It also gave an Activity (NCI-H460 [35]) of 67.37%.
